According to ChEMBL document CHEMBL3860105, “Sulfonamide-Based Inhibitors of Aminoglycoside Acetyltransferase Eis Abolish Resistance to Kanamycin in Mycobacterium tuberculosis” (J Med Chem, 2016):

What was measured:
[1] = test system: Mycobacterium tuberculosis H37Rv; settings: 10 uM
[2] = test system: Mycobacterium tuberculosis; experiment: (§1) Inhibition of Mycobacterium tuberculosis K204 acetyltransferase Eis assessed as potentiation of kanamycin A-induced antimicrobial activity by measuring kanamycin A MIC level at 10 uM pre-incubated for 24 hrs before kanamycin A addition followed by incubation for 6 days by alamar blue assay (Rvb kanamycin A alone MIC = 10 ug/ml)
[3] = test system: Mycobacterium tuberculosis; experiment: Antimicrobial activity against Mycobacterium tuberculosis H37Rv at 10 uM incubation for 6 days by alamar blue assay; type: ADME; settings: 144 h
[4] = test system: Mycobacterium tuberculosis; experiment: Antimicrobial activity against Mycobacterium tuberculosis K204 at 10 uM incubation for 6 days by alamar blue assay; type: ADME; settings: 144 h
[5] = test system: Mycobacterium tuberculosis H37Rv; settings: 23 uM
[6] = test system: Mycobacterium tuberculosis; experiment: as §1, with “at 23” for “at 10”
[7] = test system: Mycobacterium tuberculosis; experiment: Antimicrobial activity against Mycobacterium tuberculosis H37Rv at 23 uM incubation for 6 days by alamar blue assay; type: ADME; settings: 144 h
[8] = test system: Mycobacterium tuberculosis; experiment: Antimicrobial activity against Mycobacterium tuberculosis K204 at 23 uM incubation for 6 days by alamar blue assay; type: ADME; settings: 144 h
[9] = test system: Mycobacterium tuberculosis H37Rv; settings: 100 uM
[10] = test system: Mycobacterium tuberculosis; experiment: as §1, with “at 100” for “at 10”
[11] = test system: Mycobacterium tuberculosis; experiment: Antimicrobial activity against Mycobacterium tuberculosis H37Rv at 100 uM incubation for 6 days by alamar blue assay; type: ADME; settings: 144 h
[12] = test system: Mycobacterium tuberculosis; experiment: Antimicrobial activity against Mycobacterium tuberculosis K204 at 100 uM incubation for 6 days by alamar blue assay; type: ADME; settings: 144 h
[13] = test system: Mycobacterium tuberculosis; settings: 20 uM
[14] = test system: Mycobacterium tuberculosis H37Rv; settings: 70 uM
[15] = test system: Mycobacterium tuberculosis; experiment: as §1, with “at 70” for “at 10”
[16] = test system: Mycobacterium tuberculosis; experiment: Antimicrobial activity against Mycobacterium tuberculosis H37Rv at 70 uM incubation for 6 days by alamar blue assay; type: ADME; settings: 144 h
[17] = test system: Mycobacterium tuberculosis; experiment: Antimicrobial activity against Mycobacterium tuberculosis K204 at 70 uM incubation for 6 days by alamar blue assay; type: ADME; settings: 144 h
[18] = test system: Mycobacterium tuberculosis H37Rv
[19] = test system: Mycobacterium tuberculosis; experiment: as §1, with “10 uM” left out
[20] = test system: Mycobacterium tuberculosis; experiment: Antimicrobial activity against Mycobacterium tuberculosis H37Rv at […] incubation for 6 days by alamar blue assay; type: ADME; settings: 144 h
[21] = test system: Mycobacterium tuberculosis; experiment: Antimicrobial activity against Mycobacterium tuberculosis K204 at […] incubation for 6 days by alamar blue assay; type: ADME; settings: 144 h
[22] = test system: Mycobacterium tuberculosis H37Rv; remark: listed apart in the source
[23] = test system: Mycobacterium tuberculosis H37Rv; settings: 8 uM
[24] = test system: Mycobacterium tuberculosis; experiment: as §1, with “at 8” for “at 10”
[25] = test system: Mycobacterium tuberculosis; experiment: Antimicrobial activity against Mycobacterium tuberculosis H37Rv at 8 uM incubation for 6 days by alamar blue assay; type: ADME; settings: 144 h
[26] = test system: Mycobacterium tuberculosis; experiment: Antimicrobial activity against Mycobacterium tuberculosis K204 at 8 uM incubation for 6 days by alamar blue assay; type: ADME; settings: 144 h
[27] = test system: Mycobacterium tuberculosis H37Rv; settings: 25 uM
[28] = test system: Mycobacterium tuberculosis; experiment: as §1, with “at 25” for “at 10”
[29] = test system: Mycobacterium tuberculosis; experiment: Antimicrobial activity against Mycobacterium tuberculosis H37Rv at 25 uM incubation for 6 days by alamar blue assay; type: ADME; settings: 144 h
[30] = test system: Mycobacterium tuberculosis; experiment: Antimicrobial activity against Mycobacterium tuberculosis K204 at 25 uM incubation for 6 days by alamar blue assay; type: ADME; settings: 144 h
[31] = test system: Mycobacterium tuberculosis; experiment: Inhibition of Mycobacterium tuberculosis AAC(2')-Ic at 200 uM
[32] = test system: Mycobacterium tuberculosis; experiment: Antimicrobial activity against Mycobacterium tuberculosis H37Rv at 37 uM incubation for 6 days by alamar blue assay; type: ADME; settings: 144 h
[33] = test system: Mycobacterium tuberculosis; experiment: Antimicrobial activity against Mycobacterium tuberculosis K204 at 37 uM incubation for 6 days by alamar blue assay; type: ADME; settings: 144 h
[34] = test system: Mycobacterium tuberculosis H37Rv; settings: 30 uM
[35] = test system: Mycobacterium tuberculosis; experiment: as §1, with “at 30” for “at 10”
[36] = test system: Mycobacterium tuberculosis; experiment: Antimicrobial activity against Mycobacterium tuberculosis H37Rv at 30 uM incubation for 6 days by alamar blue assay; type: ADME; settings: 144 h
[37] = test system: Mycobacterium tuberculosis; experiment: Antimicrobial activity against Mycobacterium tuberculosis K204 at 30 uM incubation for 6 days by alamar blue assay; type: ADME; settings: 144 h
[38] = test system: Mycobacterium tuberculosis H37Rv; settings: 37 uM
[39] = test system: Mycobacterium tuberculosis; experiment: as §1, with “at 37” for “at 10”

CN(c1ccc(Cl)cc1)S(=O)(=O)c1ccc2[nH]c(=O)c(=O)[nH]c2c1
MIC [1]: < 1.25 µg/mL
MIC [2]: 2.5 µg/mL
Activity [3]: Non-Toxic
Activity [4]: Non-Toxic

CC(C)c1cccc(N(C)S(=O)(=O)c2ccc3[nH]c(=O)c(=O)[nH]c3c2)c1
MIC [5]: < 1.25 µg/mL
MIC [6]: 2.5 to 5 µg/mL
Activity [7]: Non-Toxic
Activity [8]: Non-Toxic

COc1ccccc1N(C)S(=O)(=O)c1ccc2[nH]c(=O)c(=O)[nH]c2c1
MIC [9]: < 1.25 µg/mL
MIC [10]: 10 µg/mL
Activity [11]: Non-Toxic
Activity [12]: Non-Toxic

O=c1[nH]c2ccc(S(=O)(=O)Nc3ccc(Cl)c(C(F)(F)F)c3)cc2[nH]c1=O
fold change (FC) [13]: > 3

CCCCc1cccc(N(C)S(=O)(=O)c2ccc3[nH]c(=O)c(=O)[nH]c3c2)c1
MIC [14]: < 1.25 µg/mL
MIC [15]: 5 to 10 µg/mL
Activity [16]: Non-Toxic
Activity [17]: Non-Toxic

O=c1[nH]c2ccc(S(=O)(=O)Nc3ccc4c(c3)OCCO4)cc2[nH]c1=O
fold change (FC) [13]: > 3

CN(c1cccc(Br)c1)S(=O)(=O)c1ccc2[nH]c(=O)c(=O)[nH]c2c1
MIC [18]: < 1.25 µg/mL
MIC [19]: 2.5 µg/mL
Activity [20]: Non-Toxic
Activity [21]: Non-Toxic

CCc1cccc(N(C)S(=O)(=O)c2ccc3[nH]c(=O)c(=O)[nH]c3c2)c1
MIC [22]: < 1.25 µg/mL
MIC [19]: 5 to 10 µg/mL
Activity [20]: Non-Toxic
Activity [21]: Non-Toxic

CN(c1ccccc1)S(=O)(=O)c1ccc2[nH]c(=O)c(=O)[nH]c2c1
MIC [9]: < 1.25 µg/mL
MIC [10]: 5 µg/mL
Activity [11]: Non-Toxic
Activity [12]: Non-Toxic

CN(c1ccc(Br)cc1)S(=O)(=O)c1ccc2[nH]c(=O)c(=O)[nH]c2c1
MIC [23]: < 1.25 µg/mL
MIC [24]: 2.5 µg/mL
Activity [25]: Non-Toxic
Activity [26]: Non-Toxic

CC(C)c1ccc(N(C)S(=O)(=O)c2ccc3[nH]c(=O)c(=O)[nH]c3c2)cc1
MIC [27]: < 1.25 µg/mL
MIC [28]: 2.5 to 5 µg/mL
Activity [29]: Non-Toxic
Activity [30]: Non-Toxic

COc1cccc(N(C)S(=O)(=O)c2ccc3[nH]c(=O)c(=O)[nH]c3c2)c1
MIC [9]: < 1.25 µg/mL
MIC [10]: < 1.25 µg/mL
Activity [11]: Non-Toxic
Activity [12]: Non-Toxic
inhibition [31]: 15%

O=c1[nH]c2ccc(S(=O)(=O)Nc3ccccc3)cc2[nH]c1=O
MIC [9]: < 1.25 µg/mL
MIC [10]: 10 µg/mL
Activity [11]: Non-Toxic
Activity [12]: Non-Toxic

COc1cc(N(C)S(=O)(=O)c2ccc3[nH]c(=O)c(=O)[nH]c3c2)cc2ccccc12
MIC [9]: < 1.25 µg/mL
MIC [10]: 10 µg/mL
Activity [11]: Non-Toxic
Activity [12]: Non-Toxic

Cc1cccc(N(C)S(=O)(=O)c2ccc3[nH]c(=O)c(=O)[nH]c3c2)c1
Activity [32]: Non-Toxic
Activity [33]: Non-Toxic

CN(c1cccc(F)c1)S(=O)(=O)c1ccc2[nH]c(=O)c(=O)[nH]c2c1
MIC [34]: < 1.25 µg/mL
MIC [35]: 5 µg/mL
Activity [36]: Non-Toxic
Activity [37]: Non-Toxic

COc1cc(OC)cc(N(C)S(=O)(=O)c2ccc3[nH]c(=O)c(=O)[nH]c3c2)c1
MIC [9]: < 1.25 µg/mL
MIC [10]: 5 to 10 µg/mL
Activity [11]: Non-Toxic
Activity [12]: Non-Toxic

CN(c1cccc(C(C)(C)C)c1)S(=O)(=O)c1ccc2[nH]c(=O)c(=O)[nH]c2c1
MIC [9]: < 1.25 µg/mL
MIC [10]: 5 to 10 µg/mL
Activity [11]: Non-Toxic
Activity [12]: Non-Toxic

Cc1cc(NS(=O)(=O)c2ccc3[nH]c(=O)c(=O)[nH]c3c2)ccc1Br
fold change (FC) [13]: > 3

Cc1cccc(N(C)S(=O)(=O)c2ccc3nc(O)c(O)nc3c2)c1
MIC [38]: < 1.25 µg/mL
MIC [39]: 2.5 to 5 µg/mL

CC(C)c1ccc(NS(=O)(=O)c2ccc3[nH]c(=O)c(=O)[nH]c3c2)cc1
MIC [9]: < 1.25 µg/mL
MIC [10]: 5 µg/mL
Activity [11]: Non-Toxic
Activity [12]: Non-Toxic

O=c1[nH]c2ccc(S(=O)(=O)Nc3ccc(Br)cc3)cc2[nH]c1=O
MIC [9]: < 1.25 µg/mL
MIC [10]: 5 µg/mL
Activity [11]: Non-Toxic
Activity [12]: Non-Toxic

CN(c1ccc2ccccc2c1)S(=O)(=O)c1ccc2[nH]c(=O)c(=O)[nH]c2c1
MIC [9]: < 1.25 µg/mL
MIC [10]: < 1.25 µg/mL
Activity [11]: Non-Toxic
Activity [12]: Non-Toxic
